Assay results as given in ChEMBL document CHEMBL4765316, “Discovery of novel resorcinol diphenyl ether-based PROTAC-like molecules as dual inhibitors and degraders of PD-L1” (Eur J Med Chem, 2020).
pIC50: −log10 of the molar value. Each block holds one compound with its values, some of them ahead of it. Active and inactive are the calls of the source. No cut-off for these calls is given here.

Legend:
[1] = target: Programmed cell death protein 1/Programmed cell death 1 ligand 1 (Homo sapiens, UniProt Q9NZQ7); assay: Inhibition of PD-1/PDL1 protein-protein interaction (unknown origin) by HTRF assay; assay type: protein-complex assay
A549 = assay: Antiproliferative activity against human A549 cells assessed as reduction in cell viability incubated for 48 hrs by CCK8 assay; assay type: functional, cell-based; settings: A549, 48 h
Jurkat = assay: Antiproliferative activity against human jurkat cells assessed as reduction in cell viability incubated for 48 hrs by CCK8 assay; assay type: functional, cell-based
NCI-H1299 = assay: Antiproliferative activity against human H1299 cells assessed as reduction in cell viability incubated for 48 hrs by CCK8 assay; assay type: functional, cell-based; settings: NCI-H1299, 48 h
MDA-MB-231 = assay: Antiproliferative activity against human MDA-MB-231 cells assessed as reduction in cell viability incubated for 48 hrs by CCK8 assay; assay type: functional, cell-based; settings: MDA-MB-231, 48 h
B16-F10 = assay: Antiproliferative activity against mouse B16-F10 cells assessed as reduction in cell viability incubated for 48 hrs by CCK8 assay; assay type: functional, cell-based; settings: B16-F10, 48 h
[2] = target: T1, Protein cereblon/Programmed cell death 1 ligand 1 (Homo sapiens) (UniProt Q9NZQ7+Q96SW2); assay: Protac like activity at CRBN/PD-L1 in human MDA-MB-231 cells assessed as reduction in cell surface PD-L1 expression at 10 uM measured after 24 hrs by Western blotting analysis relative to control; assay type: functional, cell-based; design: scale not given: the % may be the effect or the level left
Homo sapiens [3] = species: Homo sapiens; assay: Inhibition of PD1/PDL1 protein-protein interaction in human PBMC-derived CD3-positive T cells co-cultured with human Hep3B cells expressing human PDL1/OS-8 assessed as increase in IFN-gamma secretion at 3.3 uM measured after 72 hrs by ELISA relative to control; design: scale not given: the % may be the effect or the level left
[4] = target: T1, Protein cereblon/Programmed cell death 1 ligand 1 (Homo sapiens); assay: Protac like activity at CRBN/PD-L1 in human MDA-MB-231 cells assessed as reduction in cell surface PD-L1 expression at 1 uM measured after 24 hrs by Western blotting analysis relative to control; assay type: functional, cell-based; design: scale not given: the % may be the effect or the level left
Homo sapiens [5] = species: Homo sapiens; assay: Inhibition of PD1/PDL1 protein-protein interaction in human PBMC-derived CD3-positive T cells co-cultured with human Hep3B cells expressing human PDL1/OS-8 assessed as increase in IFN-gamma secretion measured after 72 hrs by ELISA relative to control; settings: dose 3.3-10 µM
[6] = target: T1, Protein cereblon/Programmed cell death 1 ligand 1 (Homo sapiens); assay: Protac like activity at CRBN/PD-L1 in human MDA-MB-231 cells assessed as reduction in cell surface PD-L1 expression at 1 to 10 uM in presence of bafilomycin lysosomal measured after 24 hrs by Western blotting analysis relative to control; assay type: functional, cell-based; settings: dose 1-10 µM
[7] = target: T1, Protein cereblon/Programmed cell death 1 ligand 1 (Homo sapiens); assay: Protac like activity at CRBN/PD-L1 in human MDA-MB-231 cells assessed as reduction in cell surface PD-L1 expression at 1 to 10 uM in presence of MG132 proteasome inhibitor measured after 24 hrs by Western blotting analysis relative to control; assay type: functional, cell-based; settings: dose 1-10 µM
[8] = target: T1, Protein cereblon/Programmed cell death 1 ligand 1 (Homo sapiens); assay: Protac like activity at CRBN/PD-L1 in human MDA-MB-231 cells assessed as reduction in cell surface PD-L1 expression at 10 uM measured after 24 hrs by flow cytometry relative to control; assay type: functional, cell-based; design: scale not given: the % may be the effect or the level left

T1 sequence (Q96SW2 whole entry, looked up): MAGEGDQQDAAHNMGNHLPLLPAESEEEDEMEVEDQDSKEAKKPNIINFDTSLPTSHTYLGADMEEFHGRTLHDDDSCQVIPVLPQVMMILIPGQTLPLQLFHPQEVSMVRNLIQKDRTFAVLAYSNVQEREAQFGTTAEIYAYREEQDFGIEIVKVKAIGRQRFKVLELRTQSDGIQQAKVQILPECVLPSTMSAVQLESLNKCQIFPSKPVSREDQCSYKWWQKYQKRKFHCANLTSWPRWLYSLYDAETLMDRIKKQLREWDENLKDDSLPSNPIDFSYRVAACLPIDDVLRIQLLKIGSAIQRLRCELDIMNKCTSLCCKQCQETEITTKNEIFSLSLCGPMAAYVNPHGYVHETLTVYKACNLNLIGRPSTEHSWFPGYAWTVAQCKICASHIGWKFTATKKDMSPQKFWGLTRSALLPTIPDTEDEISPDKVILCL
T1 sequence (Q9NZQ7 whole entry, looked up): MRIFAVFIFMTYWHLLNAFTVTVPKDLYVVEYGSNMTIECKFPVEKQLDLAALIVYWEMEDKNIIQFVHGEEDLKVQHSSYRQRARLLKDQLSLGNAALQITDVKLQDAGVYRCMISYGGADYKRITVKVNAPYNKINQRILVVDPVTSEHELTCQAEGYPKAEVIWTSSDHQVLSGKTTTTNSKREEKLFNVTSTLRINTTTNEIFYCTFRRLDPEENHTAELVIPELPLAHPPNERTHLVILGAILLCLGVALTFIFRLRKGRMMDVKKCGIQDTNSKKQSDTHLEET
Sequence of Programmed cell death protein 1/Programmed cell death 1 ligand 1 (Q15116 whole entry): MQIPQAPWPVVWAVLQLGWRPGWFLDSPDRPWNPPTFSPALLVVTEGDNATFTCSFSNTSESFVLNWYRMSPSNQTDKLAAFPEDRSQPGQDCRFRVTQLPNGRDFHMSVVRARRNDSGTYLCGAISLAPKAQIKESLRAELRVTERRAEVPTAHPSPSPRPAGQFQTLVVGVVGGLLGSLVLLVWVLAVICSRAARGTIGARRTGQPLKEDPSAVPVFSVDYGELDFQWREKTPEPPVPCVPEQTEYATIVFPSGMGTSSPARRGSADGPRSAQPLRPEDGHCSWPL
Sequence of Programmed cell death protein 1/Programmed cell death 1 ligand 1 (Q9NZQ7 whole entry): as the sequence (Q9NZQ7 whole entry, looked up) above

Structure (SMILES): Nc1cccc2c1C(=O)N(C1CCC(=O)NC1=O)C2=O (configuration not stated) [POMALIDOMIDE]
pIC50 [1]: < 8.00

Structure (SMILES): Cc1c(COc2cc(OCc3cccc(C#N)c3)c(CN3CCCCC3C(=O)NCCCCCCNc3cccc4c3C(=O)N(C3CCC(=O)NC3=O)C4=O)cc2Cl)cccc1-c1ccc2c(c1)OCCO2 (configuration not stated)
pIC50 [1]: < 6.70

pIC50 (A549): < 5.00 | pIC50 (Jurkat): < 5.00 | pIC50 (NCI-H1299): 5.01 | pIC50 (MDA-MB-231): < 5.00 | pIC50 (B16-F10): 4.94
Structure (SMILES): Cc1c(COc2cc(OCc3cccc(C#N)c3)c(CN3CCCCC3C(=O)N3CCN(C(=O)CCC(=O)Nc4cccc5c4C(=O)N(C4CCC(=O)NC4=O)C5=O)CC3)cc2Cl)cccc1-c1ccccc1 (configuration not stated)
pIC50 [1]: 7.35

Structure (SMILES): Cc1c(COc2cc(OCc3cccc(C#N)c3)c(CN3CCCCC3C(=O)NCCNC(=O)COCC(=O)Nc3cccc4c3C(=O)N(C3CCC(=O)NC3=O)C4=O)cc2Cl)cccc1-c1ccc2c(c1)OCCO2 (configuration not stated)
pIC50 [1]: < 6.70

Structure (SMILES): Cc1c(COc2cc(OCc3cccc(C#N)c3)c(CN3CCCCC3C(=O)NCCNc3cccc4c3C(=O)N(C3CCC(=O)NC3=O)C4=O)cc2Cl)cccc1-c1ccccc1 (configuration not stated)
pIC50 [1]: 6.93

pIC50 (A549): 5.09 | pIC50 (Jurkat): < 5.00 | pIC50 (NCI-H1299): 4.98 | pIC50 (MDA-MB-231): < 5.00 | pIC50 (B16-F10): < 5.00
Structure (SMILES): Cc1c(COc2cc(OCc3cccc(C#N)c3)c(CN3CCCCC3C(=O)NCCCCNc3cccc4c3C(=O)N(C3CCC(=O)NC3=O)C4=O)cc2Cl)cccc1-c1ccccc1 (configuration not stated)
pIC50 [1]: 7.28

Structure (SMILES): Cc1c(COc2ccc(CN3CCCCC3C(=O)NCCNC(=O)CCCC(=O)Nc3cccc4c3C(=O)N(C3CCC(=O)NC3=O)C4=O)cc2Br)cccc1-c1ccccc1 (configuration not stated)
pIC50 [1]: < 6.70

Structure (SMILES): Cc1c(COc2cc(OCc3cccc(C#N)c3)c(CN3CCCCC3C(=O)NCCNC(=O)CCCC(=O)Nc3cccc4c3C(=O)N(C3CCC(=O)NC3=O)C4=O)cc2Cl)cccc1-c1ccccc1 (configuration not stated)
pIC50 [1]: 6.91

Structure (SMILES): Cc1c(COc2cc(OCc3cccc(C#N)c3)c(CN3CCCCC3C(=O)NCCNC(=O)CCC(=O)Nc3cccc4c3C(=O)N(C3CCC(=O)NC3=O)C4=O)cc2Cl)cccc1-c1ccc2c(c1)OCCO2 (configuration not stated)
pIC50 [1]: < 6.70

Structure (SMILES): Cc1c(COc2cc(OCc3cccc(C#N)c3)c(CN3CCCCC3C(=O)NCCNC(=O)CCCC(=O)Nc3ccc4c(c3)C(=O)N(C3CCC(=O)NC3=O)C4=O)cc2Cl)cccc1-c1ccc2c(c1)OCCO2 (configuration not stated)
pIC50 [1]: < 6.70

pIC50 (A549): < 5.00 | pIC50 (Jurkat): < 5.00 | pIC50 (NCI-H1299): < 5.00 | pIC50 (MDA-MB-231): < 5.00 | pIC50 (B16-F10): < 5.00
Structure (SMILES): Cc1c(COc2cc(OCc3cccc(C#N)c3)c(CN3CCCCC3C(=O)NCCCCNc3cccc4c3C(=O)N(C3CCC(=O)NC3=O)C4=O)cc2Cl)cccc1-c1ccc2c(c1)OCCO2 (configuration not stated)
pIC50 [1]: 6.99

Structure (SMILES): Cc1c(COc2cc(OCc3cccc(C#N)c3)c(CN3CCCCC3C(=O)NCCNc3cccc4c3C(=O)N(C3CCC(=O)NC3=O)C4=O)cc2Cl)cccc1-c1ccc2c(c1)OCCO2 (configuration not stated)
pIC50 [1]: 6.84

Structure (SMILES): Cc1c(COc2cc(OCc3cccc(C#N)c3)c(CN3CCCCC3C(=O)NCCCCCNc3cccc4c3C(=O)N(C3CCC(=O)NC3=O)C4=O)cc2Cl)cccc1-c1ccc2c(c1)OCCO2 (configuration not stated)
pIC50 [1]: 6.71

Structure (SMILES): Cc1c(COc2cc(OCc3cccc(C#N)c3)c(CN3CCCCC3C(=O)NCCNC(=O)CCC(=O)Nc3cccc4c3C(=O)N(C3CCC(=O)NC3=O)C4=O)cc2Cl)cccc1-c1ccccc1 (configuration not stated)
pIC50 [1]: 7.01

pIC50 (A549): < 5.00 | Activity (Homo sapiens [3]): 215% | Activity (Homo sapiens [5]): Dose-dependent effect | pIC50 (Jurkat): < 5.00 | pIC50 (NCI-H1299): < 5.00 | pIC50 (MDA-MB-231): < 5.00 | pIC50 (B16-F10): < 5.00
Structure (SMILES): Cc1c(COc2cc(OCc3cccc(C#N)c3)c(CN3CCCCC3C(=O)N3CCN(C(=O)CCCC(=O)Nc4cccc5c4C(=O)N(C4CCC(=O)NC4=O)C5=O)CC3)cc2Cl)cccc1-c1ccc2c(c1)OCCO2 (configuration not stated)
Activity [2]: 35% | Activity [4]: 21% | Activity [6]: inactive | Activity [7]: Active | pIC50 [1]: 7.41 | Activity [8]: 14%

pIC50 (A549): < 5.00 | pIC50 (Jurkat): < 4.93 | pIC50 (NCI-H1299): < 5.00 | pIC50 (MDA-MB-231): < 5.00 | pIC50 (B16-F10): 4.97
Structure (SMILES): Cc1c(COc2cc(OCc3cccc(C#N)c3)c(CN3CCCCC3C(=O)N3CCN(C(=O)CCCC(=O)Nc4cccc5c4C(=O)N(C4CCC(=O)NC4=O)C5=O)CC3)cc2Cl)cccc1-c1ccccc1 (configuration not stated)
pIC50 [1]: 7.58

Structure (SMILES): Cc1c(COc2cc(OCc3cccc(C#N)c3)c(CN3CCCCC3C(=O)NCCCNc3cccc4c3C(=O)N(C3CCC(=O)NC3=O)C4=O)cc2Cl)cccc1-c1ccccc1 (configuration not stated)
pIC50 [1]: 7.01

Structure (SMILES): Cc1c(COc2cc(OCc3cccc(C#N)c3)c(CN3CCCCC3C(=O)NCCCCCCNc3cccc4c3C(=O)N(C3CCC(=O)NC3=O)C4=O)cc2Cl)cccc1-c1ccccc1 (configuration not stated)
pIC50 [1]: < 6.70

Structure (SMILES): Cc1c(COc2cc(OCc3cccc(C#N)c3)c(CN3CCCCC3C(=O)NCCCCNC(=O)CCCC(=O)Nc3cccc4c3C(=O)N(C3CCC(=O)NC3=O)C4=O)cc2Cl)cccc1-c1ccccc1 (configuration not stated)
pIC50 [1]: 6.92

Structure (SMILES): Cc1c(COc2ccc(CN3CCCCC3C(=O)NCCCCNc3cccc4c3C(=O)N(C3CCC(=O)NC3=O)C4=O)cc2Br)cccc1-c1ccccc1 (configuration not stated)
pIC50 [1]: 6.70

Structure (SMILES): Cc1c(COc2ccc(CN3CCCCC3C(=O)N3CCN(C(=O)CCCC(=O)Nc4cccc5c4C(=O)N(C4CCC(=O)NC4=O)C5=O)CC3)cc2Br)cccc1-c1ccccc1 (configuration not stated)
pIC50 [1]: < 6.70

Structure (SMILES): Cc1c(COc2cc(OCc3cccc(C#N)c3)c(CN3CCCCC3C(=O)O)cc2Cl)cccc1-c1ccc2c(c1)OCCO2 (configuration not stated)
pIC50 [1]: 7.25

Structure (SMILES): Cc1c(COc2cc(OCc3cccc(C#N)c3)c(CN3CCCCC3C(=O)NCCCCCNc3cccc4c3C(=O)N(C3CCC(=O)NC3=O)C4=O)cc2Cl)cccc1-c1ccccc1 (configuration not stated)
pIC50 [1]: 6.77

Structure (SMILES): Cc1c(COc2cc(OCc3cccc(C#N)c3)c(CN3CCCCC3C(=O)NCCCNC(=O)CCC(=O)Nc3cccc4c3C(=O)N(C3CCC(=O)NC3=O)C4=O)cc2Cl)cccc1-c1ccccc1 (configuration not stated)
pIC50 [1]: < 6.70

Structure (SMILES): Cc1c(COc2cc(OCc3cccc(C#N)c3)c(CN3CCCCC3C(=O)NCCNC(=O)COCC(=O)Nc3cccc4c3C(=O)N(C3CCC(=O)NC3=O)C4=O)cc2Cl)cccc1-c1ccccc1 (configuration not stated)
pIC50 [1]: < 6.70

Structure (SMILES): Cc1c(COc2cc(OCc3cccc(C#N)c3)c(CN3CCCCC3C(=O)NCCNC(=O)CCCC(=O)Nc3ccc4c(c3)C(=O)N(C3CCC(=O)NC3=O)C4=O)cc2Cl)cccc1-c1ccccc1 (configuration not stated)
pIC50 [1]: 6.99

Structure (SMILES): Cc1c(COc2cc(OCc3cccc(C#N)c3)c(CN3CCCCC3C(=O)NCCCNc3cccc4c3C(=O)N(C3CCC(=O)NC3=O)C4=O)cc2Cl)cccc1-c1ccc2c(c1)OCCO2 (configuration not stated)
pIC50 [1]: 6.87

Structure (SMILES): Cc1c(COc2cc(OCc3cccc(C#N)c3)c(CN3CCCCC3C(=O)NCCCCCNC(=O)CCCC(=O)Nc3cccc4c3C(=O)N(C3CCC(=O)NC3=O)C4=O)cc2Cl)cccc1-c1ccccc1 (configuration not stated)
pIC50 [1]: < 6.70

Structure (SMILES): Cc1c(COc2cc(OCc3cccc(C#N)c3)c(CN3CCCCC3C(=O)NCCNC(=O)CCCC(=O)Nc3cccc4c3C(=O)N(C3CCC(=O)NC3=O)C4=O)cc2Cl)cccc1-c1ccc2c(c1)OCCO2 (configuration not stated)
pIC50 [1]: < 6.70

pIC50 (A549): 5.04 | pIC50 (Jurkat): < 5.00 | pIC50 (NCI-H1299): < 5.00 | pIC50 (MDA-MB-231): < 5.00 | pIC50 (B16-F10): 5.14
Structure (SMILES): Cc1c(COc2cc(OCc3cccc(C#N)c3)c(CN3CCCCC3C(=O)N3CCN(C(=O)CCC(=O)Nc4cccc5c4C(=O)N(C4CCC(=O)NC4=O)C5=O)CC3)cc2Cl)cccc1-c1ccc2c(c1)OCCO2 (configuration not stated)
pIC50 [1]: 7.60
